Assay results from patent US7182963B2, “Cosmetic and dermopharmaceutical compositions for skin prone to acne” (priority 2001, dated 2007).

What was measured:
[1] = system: Acinetobacterium calcoaceticus; experiment: Antibacterial effect, agar incorporation, strain E; assay type: cell-based; design: key to bacterial growth, strain E: ‘+’ = bacterial growth; ‘−’ = no bacterial growth; settings: for antimicrobial activity: A. calcoaceticus; for bacterial growth, strain E: 24 h (same at 48 h), equivalent to 5% premix
Description: (§1) Test Principle and Implementation: 1 mL of the premix in example No. 1 or its constituents at concentrations equivalent to 5% of the premix were incorporated in molten agar medium (BioMérieux) plated in a Petri dish. […] The plates were then incubated at 37° C. for 24 and 48 hours and inspected visually. Five strains, Corynebacterium minutissimum, Propionibacterium acnes, Staphylococcus aureus, Staphylococcus hominis and Acinetobacterium calcoaceticus were studied.

[2] = system: interleukin 6 (IL-6) on normal human keratinocytes (HK); experiment: Anti-inflammatory effect: IL-6 (ELISA) in normal human keratinocytes after UV-B irradiation; assay type: cell-based; settings: for HK % change (IL-6 vs. tests without UV exposure): UV-B 50 mJ.cm^−2, 24 hours
Description: (§2) Principle and test implementation: it is possible to estimate a degree of inflammation by determining the quantity of mediators such as prostaglandins, leukotrienes or interleukins. In this example, we selected assay of interleukin 6 (IL-6) on normal human fibroblasts (HF) and keratinocytes (HK) in culture following exposure to UV-B irradiation. Broadly speaking, the cells were cultured in a conventional culture medium (DMEMc+10% FCS) for periods of 24 hours for HF and 1 week for HK. After elimination of the buffer and 2 successive washings with phosphate buffer solution, the cells were exposed to UV-B irradiation at a standardized energy level of 50 mJ.cm^−2. The buffer was then rapidly eliminated and replaced by the same culture medium as that used at the start of the experiment, but containing the test extracts at the prerequisite concentrations or DMSO for the control series. After 24 hours, the culture medium was harvested and IL-6 concentration determined using a standard ELISA method. An additional series was conducted using the same protocol but without UV-B irradiation in order to determine the baseline level and control the stability of the study system. All the assays were conducted in triplicate.

5α-reductase [3] = experiment: Inhibition of 5α-reductase, enzymatic assay (NADPH absorbance at 340 nm), in vitro; assay type: biochemical; settings: for % inhibition: mean±SEM, 5 assays
Description: Principle and implementation of the test (adapted from Zy and Zu, 1998):
Testosterone is irreversibly metabolized by 5α-reductase to […] (5-DHT) in the presence of the cofactor NADPH. The reaction is monitored, at 37° C., by determining, using a spectrophotometer, the reduction in the absorbance of the reaction medium at 340 nm, due to the conversion of NADPH to NADP.
The test thus consists in mixing testosterone, NADPH and the test product or its vehicle alone (control reaction). After 3 minutes to allow the system to equilibrate, the baseline absorbance of the system is determined. Then the reaction is triggered by addition of the enzyme, 5α-reductase. After 10 minutes, a second determination of the absorbance, final absorbance, is conducted. The difference between the two measurements reflects the quantity of NADPH consumed. That quantity is proportional to the quantity of testosterone converted to 5-DHT.

[4] = system: interleukin 6 (IL-6) on normal human fibroblasts (HF); experiment: Anti-inflammatory effect: IL-6 (ELISA) in normal human fibroblasts after UV-B irradiation; assay type: cell-based; settings: for HF % change (IL-6 vs. tests without UV exposure): UV-B 50 mJ.cm^−2, 24 hours
Description: as §2

Staphylococcus hominis = experiment: Antibacterial effect, agar incorporation, strain B; assay type: cell-based; design: key to bacterial growth, strain B: ‘+’ = bacterial growth; ‘−’ = no bacterial growth; settings: for bacterial growth, strain B: 24 h (same at 48 h), equivalent to 5% premix
Description: as §1

5α-reductase [5] = experiment: Inhibition of 5α-reductase, HPLC determination of testosterone, in vitro; assay type: biochemical; settings: for % inhibition: mean±SEM, 5 assays
Description: Principle and implementation of the test: the aim of this test was to confirm the previous result but using an HPLC analysis method. Unlike 5-DHT, testosterone absorbs light at the wavelength used (245 nm). The decrease in testosterone peak area (which was characterized under our operating conditions by a retention time of 26 minutes) reflects the reduction of the concentration of the compound in the study medium and thus reflects 5α-reductase activity.
The same type of protocol as in the previous example was used, but instead of determining the absorbances, the reaction media were analyzed by HPLC.

[6] = system: normal human keratinocytes (HK); experiment: Antiproliferative effect on keratinocytes (DNA quantity, Hoechst 33258); assay type: cell-based; settings: for % inhibition (quantity of DNA, number of cells): 1 week culture
Excerpt: Test principle and implementation: since the quantity of DNA is constant for each cell, the determination of the overall quantity of DNA is equivalent to measuring the number of cells used for the determination. This principle enables routine use of more refined but very cumbersome methodologies to be avoided. Various methods have been developed on the basis of this protocol, of which, in particular, that used herein. When bound to DNA with a constant and known stereochemistry, the fluorophore, Hoechst 33258, presents, first, increased fluorescence, but also an emission spectrum shift from 492 to 458 nm. By means of comparison with pre-established sets of standards, the concomitant monitoring of the above 2 parameters enables quantification of the quantity of DNA present in the cell samples studied. Broadly speaking, normal human keratinocytes (HK) are cultured in a classic culture medium (DMEMc+10% FCS) for 1 week, in the absence of the test product (control series in order to determine the baseline cell proliferation of the system studied) or in the presence of the test products alone or in combination. Fluorophore Hoechst 33258 was added at the end of the protocol before withdrawing cell aliquots for assay. The assays were conducted in triplicate as 3 mutually independent assays.

Staphylococcus aureus = experiment: Antibacterial effect, agar incorporation, strain C; assay type: cell-based; design: key: ‘+’ = bacterial growth; ‘−’ = no bacterial growth; settings: 24 h (same at 48 h), equivalent to 5% premix
Description: as §1

P. acnes = experiment: Antibacterial effect, agar incorporation, strain D; assay type: cell-based, Propionibacterium acnes; design: key to bacterial growth, strain D: ‘+’ = bacterial growth; ‘−’ = no bacterial growth; settings: for bacterial growth, strain D: 24 h (same at 48 h), equivalent to 5% premix
Description: as §1

[7] = system: Corynebacterium minutissimum; experiment: Antibacterial effect, agar incorporation, strain A; assay type: cell-based; design: key: ‘+’ = bacterial growth; ‘−’ = no bacterial growth; settings: 24 h (same at 48 h), equivalent to 5% premix
Description: as §1

[8] = [c] 0.01%, listed as nordihydroguaiaretic acid

CC(Cc1ccc(O)c(O)c1)C(C)Cc1ccc(O)c(O)c1 (stereo not drawn) [NDGA, nordihydroguaiaretic acid] was tested, and the “antimicrobial activity” value [1] was “selective antimicrobial activity”, the “inhibition vs. irradiated control (HK)” value ([2]; 0.01%) was 14% and the “HK % change (IL-6 vs. tests without UV exposure)” value ([2]; [c] 0.01%) was “+388 ± 10%”. For the same compound, the “HK % change (IL-6 vs. tests without UV exposure)” value [2, 8] was “+388%”, the “HK % change (IL-6 vs. tests without UV exposure)” value ([2]; [c] 0.04%) was “+201 ± 10%” and the “HK % change (IL-6 vs. tests without UV exposure)” value ([2]; [c] 0.1%) was “+91 ± 14%”. For the same compound, the “activity in the test” value (5α-reductase [3]) was “no activity”, the “% inhibition” value (5α-reductase [3]; [c] 0.01%) was 2.1 ± 1.6% and the “% inhibition” value (5α-reductase [3]; [c] 0.04%) was 3.7 ± 2.9%. For the same compound, the “% inhibition” value (5α-reductase [3]; [c] 0.1%) was 3.0 ± 1.9%, the “inhibition vs. irradiated control (HF)” value ([4]; 0.01%) was 19% and the “HF % change (IL-6 vs. tests without UV exposure)” value ([4]; [c] 0.01%) was “+356 ± 18%”. For the same compound, the “HF % change (IL-6 vs. tests without UV exposure)” value [4, 8] was “+356%”, the “HF % change (IL-6 vs. tests without UV exposure)” value ([4]; [c] 0.04%) was “+155 ± 9%” and the “HF % change (IL-6 vs. tests without UV exposure)” value ([4]; [c] 0.1%) was “+87 ± 7%”. For the same compound, the “antimicrobial activity” value (Staphylococcus hominis; S. hominis) was “selective antimicrobial activity”, the “activity in the test” value (5α-reductase [5]) was “no activity” and the “% inhibition” value (5α-reductase [5]; [c] 0.01%) was 1.2 ± 0.4%. The “% inhibition” value (5α-reductase [5]; [c] 0.04%) was 1.0 ± 0.9%, the “% inhibition” value (5α-reductase [5]; [c] 0.1%) was 0.9 ± 0.7% and the “% inhibition (quantity of DNA, number of cells)” value ([6]; [c] 0.04%) was 22.3 ± 1.9%. The “% inhibition (quantity of DNA, number of cells)” value ([6]; [c] 0.1%) was 29.9 ± 1.7%.

In the case of Oc1cc(Cl)ccc1Oc1ccc(Cl)cc1Cl [Trichlosan], the “bacterial growth, strain E” value ([1]; 10^4 bacteria/mL) is reported as “−”, the “bacterial growth, strain E” value ([1]; 10^5 bacteria/mL) is reported as “−” and the “bacterial growth, strain C” value (Staphylococcus aureus; 10^4 bacteria/mL) is reported as “−”. The “bacterial growth, strain C” value (Staphylococcus aureus; 10^5 bacteria/mL) was “−”, the “bacterial growth, strain D” value (P. acnes; 10^4 bacteria/mL) was “−” and the “bacterial growth, strain D” value (P. acnes; 10^5 bacteria/mL) was “−”. The “bacterial growth, strain A” value ([7]; 10^4 bacteria/mL) was “−”, the “bacterial growth, strain A” value ([7]; 10^5 bacteria/mL) was “−” and the “bacterial growth, strain B” value (Staphylococcus hominis; 10^4 bacteria/mL) was “−”. The “bacterial growth, strain B” value (Staphylococcus hominis; 10^5 bacteria/mL) was “−”.

CC1(C)CC[C@]2(C(=O)O)CC[C@]3(C)C(=CC[C@@H]4[C@@]5(C)CC[C@H](O)C(C)(C)[C@@H]5CC[C@]43C)[C@@H]2C1 [Oleanolic acid, oleanolic acid] was tested, and the “antimicrobial activity” value [1] was “selective antimicrobial activity”, the “activity in the test, HK” value [2] was “devoid of activity” and the “HK % change (IL-6 vs. tests without UV exposure)” value ([2]; [c] 0.01%) was “+461 ± 16%”. The “HK % change (IL-6 vs. tests without UV exposure)” value ([2]; [c] 0.03%) was “+444 ± 14%”, the “HK % change (IL-6 vs. tests without UV exposure)” value ([2]; [c] 0.1%) was “+450 ± 14%” and the “% inhibition” value (5α-reductase [3]; [c] 0.01%) was 16.7 ± 1.1%. The “% inhibition” value (5α-reductase [3]; [c] 0.03%) was 31.7 ± 2.9%, the “% inhibition” value (5α-reductase [3]; [c] 0.1%) was 56.3 ± 2.6% and the “% inhibition” value (5α-reductase [3]; [c] 0.1%, listed as oleanolic acid) was 56%. The “activity in the test, HF” value [4] was “devoid of activity”, the “HF % change (IL-6 vs. tests without UV exposure)” value ([4]; [c] 0.01%) was “+455 ± 14%” and the “HF % change (IL-6 vs. tests without UV exposure)” value ([4]; [c] 0.03%) was “+437 ± 12%”. For the same compound, the “HF % change (IL-6 vs. tests without UV exposure)” value ([4]; [c] 0.1%) was “+441 ± 18%”, the “antimicrobial activity” value (P. acnes; P. acnes) was “selective antimicrobial activity” and the “% inhibition” value (5α-reductase [5]; [c] 0.01%) was 10.9 ± 1.4%. The “% inhibition” value (5α-reductase [5]; [c] 0.03%) was 25.6 ± 2.0%, the “% inhibition” value (5α-reductase [5]; [c] 0.1%) was 48% and the “% inhibition” value (5α-reductase [5]; [c] 0.1%, listed as Oleanolic acid (obtained from olive tree leaves)) was 47.7 ± 3.8%. For the same compound, the “activity in the test” value [6] was “devoid of activity”, the “% inhibition (quantity of DNA, number of cells)” value ([6]; [c] 0.01%) was 0.9 ± 1.0% and the “% inhibition (quantity of DNA, number of cells)” value ([6]; [c] 0.03%) was 1.1 ± 1.6%. The “% inhibition (quantity of DNA, number of cells)” value ([6]; [c] 0.1%) was 0.7 ± 0.7%.
